IC50 and inhibition data for 12 compounds are collected here from patent publication US20260284014A1, “3,5-DIAMINOTRIAZOLE DERIVATIVES AND USES THEREOF FOR TREATING OCULAR DISEASES” (CENTRE NATIONAL DE LA RECHERCHE SCIENTIFIQUE, priority 2023, published 2026).

Molecules are shown by their SMILES.

Type in all cases: cell-based
For experiment [1], the system named is ARPE-19 cells. Briefly: Cell viability (XTT assay). The note with it: Homo sapiens, 48 h, read-out: A. Safety IC50 on ARPE-19 cells. Here is the method: ARPE-19 cells were incubated in a 96-well plate with different effectors for 48 hours. Fifty microliters of sodium 3′-[1-phenylaminocarbonyl)-3,4-tetrazolium]-bis(4-methoxy-6-nitro) benzene sulfonic acid hydrate (XTT) reagent was added to each well. The test is based on the cleavage of the yellow tetrazolium salt XTT to form an orange formazan dye by metabolically active cells. This bio-reduction occurs in viable cells only and is associated with NAD(P)H production through glycolysis. Therefore, the amount of formazan dye measured at 490 nm, correlates directly with the number of metabolically active cells reflecting cell proliferation, viability, and cytotoxicity. Each assay was performed in quadruplicate.
(§1) All compounds were evaluated in different experiments. Results are represented as the mean of three independent experiments. A. ARPE-19 cells were treated with dose response of compound for 48 h. Values are reported as IC50 measured with the XTT assay. B and C. ARPE-19 cells were treated with 5 μM (B) or 1 μM (C) compound then with 200 μM H2O2 for 2 h. ROS were analyzed by cytometry. […] As illustrated in FIG. 1A. D. ARPE-19 cells were treated with 2.5 μM compound for 48 h and the level of CXCL1 mRNA was evaluated by qPCR. […] As illustrated in FIG. 1B. E. TIME cells were pre-treated with 2.5 μM compound for 1 h then stimulated with 100 ng/ml CXCL8 for 15 min p-ERK levels were analyzed by immunoblotting. HSP90 served as loading control. […] As illustrated in FIG. 1C.
For orientation: Formazan colour is commonly taken as a measure of viable cells.

The subject of experiment [2] is ROS. Briefly: ROS labeling by cytometry after H2O2. The note with it: Homo sapiens, ARPE-19; for inhibition at 1 µM: 1 μM compound then 200 μM H2O2 for 2 h, read-out: C. ROS inhibition 1 μM - ARPE-19 cells; for inhibition at 5 µM: 5 μM compound then 200 μM H2O2 for 2 h, read-out: B. ROS inhibition 5 μM - ARPE-19 cells. How it is done:
ARPE-19 cells were treated with MCK349 30 minutes then with 200 μM H2O2 for 2 h. 10 μM DCF-DA (2′,7′-Dichlorofluorescein diacetate) were added on cell media for 30 min. Cells were rinsed then detached (trypsin) and resuspended in PBS 0.5% BSA and 2 mM EDTA. The cells are analyzed by cytometry (ROS labeled with DCFDA-FITC).
as §1

The test system of experiment [3] is ERK activation (p-ERK). Briefly: p-ERK immunoblotting after CXCL8 stimulation. The note with it: 2.5 μM compound 1 h then 100 ng/ml CXCL8 for 15 min; read-out: E. p-ERK inhibition - TIME. How it is done:
Cells were lysed in buffer containing 3% SDS, 10% glycerol and 0.825 mM Na2HPO4. 30 to 50 μg of proteins separated on 10% SDS-PAGE, transferred onto a PVDF membrane and then exposed to the appropriate antibodies. Proteins were visualized with the ECL system using horseradish peroxidase-conjugated anti-rabbit or anti-mouse antibodies.
as §1

For the compound `Nc1nc(Nc2ccccc2)n(Cc2ccccc2)n1` [MCK248, 1-benzyl-N^5-phenyl-1H-1,2,4-triazole-3,5-diamine], in experiment [1], the IC50 is > 25 µM. Also, in experiment [2], the inhibition at 1 µM was < 50% and the inhibition at 5 µM is ≥ 50%. The inhibition at 2.5 µM in experiment [3] was < 50%.

As to `Nc1nc(Nc2ccccc2)nn1Cc1ccccc1` [MCK249, 1-benzyl-N^3-phenyl-1H-1,2,4-triazole-3,5-diamine], the IC50 in experiment [1] is > 25 µM. Also, in experiment [2], the inhibition at 1 µM is < 50% and the inhibition at 5 µM is ≥ 50%. The inhibition at 2.5 µM in experiment [3] was < 50%.

As for `Cc1ccccc1Cn1nc(Nc2ccccc2)nc1N` [MCK250, 1-(2-methylbenzyl)-N^3-phenyl-1H-1,2,4-triazole-3,5-diamine], the IC50 in experiment [1] is > 25 µM. Moreover, in experiment [2], the inhibition at 1 µM is ≥ 50% and the inhibition at 5 µM was ≥ 50%. Further, the inhibition at 2.5 µM in experiment [3] was < 50%.

In the case of `Nc1nc(Nc2ccccn2)nn1Cc1ccccc1` [MCK253, 1-benzyl-N^3-(pyridin-2-yl)-1H-1,2,4-triazole-3,5-diamine], the IC50 in experiment [1] was > 25 µM. Also, in experiment [2], the inhibition at 1 µM was < 50% and the inhibition at 5 µM is < 50%. In addition, the inhibition at 2.5 µM in experiment [3] was < 50%.

In the case of `Nc1nc(Nc2cccnc2)nn1Cc1ccccc1` [MCK254, 1-benzyl-N^3-(pyridin-3-yl)-1H-1,2,4-triazole-3,5-diamine], the IC50 in experiment [1] was > 25 µM. Moreover, in experiment [2], the inhibition at 1 µM was < 50% and the inhibition at 5 µM was < 50%. Moreover, the inhibition at 2.5 µM in experiment [3] is < 50%.

Regarding `Nc1nc(Nc2ccccc2)n(Cc2c(F)cccc2F)n1` [MCK257, 1-(2,6-difluorobenzyl)-N^5-phenyl-1H-1,2,4-triazole-3,5-diamine], the IC50 in experiment [1] is > 25 µM. Moreover, in experiment [2], the inhibition at 1 µM was ≥ 50% and the inhibition at 5 µM is ≥ 50%. In addition, the inhibition at 2.5 µM in experiment [3] is ≥ 50%.

Consider `Nc1nc(Nc2ccccn2)nn1Cc1c(F)cccc1F` [MCK259, 1-(2,6-difluorobenzyl)-N^3-(pyridin-2-yl)-1H-1,2,4-triazole-3,5-diamine], for which the IC50 in experiment [1] is > 25 µM. Moreover, in experiment [2], the inhibition at 1 µM was < 50% and the inhibition at 5 µM is < 50%. The inhibition at 2.5 µM in experiment [3] was ≥ 50%.

On to `COc1cccc(Cn2nc(N)nc2Nc2ccccc2)c1` [MCK260, 1-(3-methoxybenzyl)-N^5-phenyl-1H-1,2,4-triazole-3,5-diamine], for which the IC50 in experiment [1] was > 25 µM. Also, in experiment [2], the inhibition at 1 µM is ≥ 50% and the inhibition at 5 µM was ≥ 50%. Besides, the inhibition at 2.5 µM in experiment [3] was ≥ 50%.

For `COc1cccc(Cn2nc(Nc3ccccc3)nc2N)c1` [MCK261, 1-(3-methoxybenzyl)-N^3-phenyl-1H-1,2,4-triazole-3,5-diamine], the IC50 in experiment [1] was > 25 µM. In addition, in experiment [2], the inhibition at 1 µM was < 50% and the inhibition at 5 µM was ≥ 50%. Further, the inhibition at 2.5 µM in experiment [3] is ≥ 50%.

Regarding `CC(C)c1ccc(Cn2nc(N)nc2Nc2ccccc2)cc1` [MCK262, 1-(4-isopropylbenzyl)-N^5-phenyl-1H-1,2,4-triazole-3,5-diamine], the IC50 in experiment [1] is > 25 µM. Further, in experiment [2], the inhibition at 1 µM is ≥ 50% and the inhibition at 5 µM is ≥ 50%. For the same compound, the inhibition at 2.5 µM in experiment [3] was ≥ 50%.

As for `Nc1nc(Nc2ccccc2)nn1Cc1cccc(Br)c1` [MCK264, 1-(3-bromobenzyl)-N^3-phenyl-1H-1,2,4-triazole-3,5-diamine], in experiment [1], the IC50 is > 25 µM. Further, in experiment [2], the inhibition at 1 µM is ≥ 50% and the inhibition at 5 µM was ≥ 50%. The inhibition at 2.5 µM in experiment [3] is ≥ 50%.

As for `Nc1nc(Nc2ccccc2)nn1Cc1c(Cl)cccc1Cl` [MCK268, 1-(2,6-dichlorobenzyl)-N^3-phenyl-1H-1,2,4-triazole-3,5-diamine], the IC50 in experiment [1] was > 25 µM. Also, in experiment [2], the inhibition at 1 µM is < 50% and the inhibition at 5 µM was ≥ 50%. Besides, the inhibition at 2.5 µM in experiment [3] was ≥ 50%.

For orientation: IC50 means the concentration that gives 50% inhibition. The inhibition is the drop in the measured response relative to a control, in per cent.
